Converted amounts (≈) assume the structure as drawn.
What was measured:
[1] = Aqueous solubility at pH about 6.8; type: physicochemical; settings: 25 °C, pH 6.8, aqueous buffer, kinetic from dmso stock, single value, procedure not stated; read-out: Solubility at pH 6.8
[2] = test system: human liver microsomes; assay: In vitro metabolic stability, human liver microsomes; type: in vitro ADME; settings: 2 μM, % remaining after 30 minutes at 37° C.
Description: The comparative in vitro metabolic stabilities of Compounds (1F), […], and W-212393 were determined upon exposure to human liver microsomes or rat liver microsomes according to a procedure disclosed in, e.g., Example 14 of U.S. Pat. No. 9,290,488, which is hereby incorporated by reference in its entirety. Liver microsomes from Crj;CD rats or humans were incubated with 2 μM of each tested compound; thereafter, the supernatant was analyzed by HPLC-MS for the concentration of the tested compound present. Human liver microsomes, pooled, 20 mg/mL, were obtained from […] #H0610). […] Alternatively and if desired, rat liver microsomes can be obtained commercially from, e.g., XenoTech (Sprague-Dawley rat liver microsomes, pooled, 20 mg/mL, cat #R1000). β-NADPH (β-nicotinamide adenine dinucleotide 2'-phosphate reduced tetrasodium salt hydrate) was obtained from Oriental Yeast Co., Ltd. (Tokyo, Japan). Each tested compound, present at an initial concentration of 2 μM, was incubated at 37° C. in the presence of 0.5 mg/mL of either human microsomes or rat microsomes in suspension in 50 mM Tris-HCl buffer (7.4 pH), 150 mM KCl, 10 mM MgCl2, and 1 mM β-NADPH. Incubation was initiated upon the addition of a 100-fold concentrated solution of the tested compound to one of the microsome preparations. Incubation was terminated by addition of a two-fold volume of a 1/1 mixture of acetonitrile/methanol after either 0 minutes or 30 minutes of incubation at 37° C. Thereafter, proteins and other macromolecules from the microsome preparation were removed by centrifugation. All incubations were conducted in duplicate. […] The HPLC system consisted of a Waters 2795 separations module (Waters Corp., Milford, Mass.) equipped with an inline degasser, temperature controlled auto-sampler, and column oven. The analytical column was a Waters […], 2.1 mm×20 mm column. The mass analyzer was a Waters ZQ, single quadrupole mass spectrometer equipped with an electrospray ionization source operating in the positive ionization mode and utilizing a stainless steel spray capillary. […]

[3] = Free unbound compound fraction, equilibrium dialysis of rat serum; type: in vitro ADME; settings: male, Crl:CD (SD), rat, rat serum; 2 μg/mL, 24 hours dialysis at 37° C.
Description: The extent of in vitro binding of Compound (1F) or W-212393 to rat serum was determined as an assessment of the availability of free unbound compound for modulating receptor activity according to a procedure disclosed in, e.g., Example 15 of U.S. Pat. No. 9,290,488, which is hereby incorporated by reference in its entirety. Serum from rats containing a tested compound in one chamber of a dialysis cell was dialyzed with phosphate buffered saline (“PBS”) in the other chamber; thereafter, the supernatant from each chamber was analyzed for the concentration of the tested compound present. […] The final concentration of each tested compound in the serum sample was adjusted to 2 μg/mL by adding an appropriate volume of PBS. A cell suitable for equilibrium dialysis was used in the determinations. A SPECTRA/POR dialysis membrane (with molecular mass cutoff of 12,000-14,000 Da, Spectrum Laboratories, Inc., Rancho Dominguez, Calif.) separated the dialysis cell into two chambers. A 500 μL aliquot of the serum sample containing a tested compound was applied to one chamber (serum chamber) of the dialysis cell. A 500 μL aliquot of PBS was applied to the other chamber (PBS chamber) of the dialysis cell. The dialysis study was conducted in duplicate for each tested compound. After 24 hours of equilibrium dialysis at 37° C., 30 μL of liquid from the serum chamber of the dialysis cell was collected and to this was added 270 μL of fresh PBS (this combination was designated Sample “A”). Then, 270 μL of liquid from the PBS chamber of the dialysis cell was collected and to this was added 30 μL of control rat serum (i.e., rat serum never exposed to any test compound, this combination was designated Sample “B”). […] Each supernatant was analyzed by LC-MS-MS. […] Thereafter, the percentage of free unbound tested compound was calculated from the ratio of the tested compound amount determined from Sample B divided by the sum of the tested compound amounts determined from Sample A and Sample B.

[4] = test system: rat plasma; assay: Rat protein binding, equilibrium dialysis of rat plasma; type: in vitro ADME; settings: 24 hours dialysis at 37° C.
Description: The extent of in vitro binding of Compound (1F), […], or W-212393 to rat plasma was determined as an assessment of the protein binding of each compound, i.e., compound unavailable for modulating receptor activity. Plasma from rats containing a tested compound in one chamber of a dialysis cell was dialyzed with PBS in the other chamber; thereafter, the supernatant from each chamber was analyzed for the concentration of the tested compound present. A cell suitable for equilibrium dialysis was used in the determinations. The dialysis membrane described in Example 10 (with molecular mass cutoff of 12,000-14,000 Da) separated the dialysis cell into two chambers. The membrane was soaked with purified water and PBS before being placed into the dialysis cell. 4 μL of an iv formulation of each tested compound was added to 996 μL of rat plasma, the latter obtained using syringe containing heparin and EDTA by the procedure described in Example 10, to provide a plasma sample with a tested compound concentration of 2 μg/mL. 450 μL of the plasma sample was applied to one chamber (plasma chamber) of the dialysis cell. A 450 μL aliquot of PBS was applied to the other chamber (PBS chamber) of the dialysis cell. The dialysis study was conducted in duplicate for each tested compound. After 24 hours of equilibrium dialysis at 37° C., 30 μL of liquid from the plasma chamber of the dialysis cell was collected and to this was added 270 μL of fresh PBS (this combination was designated Sample “1”). Then, 270 μL of liquid from the PBS chamber of the dialysis cell was collected and to this was added 30 μL of control rat plasma (i.e., rat plasma never exposed to any test compound, this combination was designated Sample “2”). Thereafter, each sample was mixed well and stored in a freezer until the next analysis step. After the protein precipitated in the freezer, each supernatant thusly obtained was analyzed by LC-MS-MS for unbound test compound. […] Thereafter, the percentage of rat protein-bound (“RPB”) tested compound was calculated as follows: […]

[5] = test system: rats; settings: by suppression of rhythmic firing of SCN neurons; cited from earlier work

## CNC(=O)Cn1c(=O)n(C2CCN([C@@H]3Cc4cccc5cccc3c45)CC2)c2ccccc21 [Compound W-212393]
[1]
  solubility at 16 h: 42 µM (≈ 18.5 µg/mL)
[2]
  Human Metabolic Stability (%): 27.3%
[3]
  fraction unbound at 24 h, 2 μg/mL: < 0.001
[4]
  stability in rat plasma during the determination: unstable in plasma
[5]
  effect on circadian body temperature rhythm: induced a phase advance
